In patent publication US20090232912A1, “Method For Preparing Extract For The Prevention and Treatment Of Hyperlipidemia and Obesity From the Extract of Aster Spathulifolius Aerial Part and Composition Containing The Same” (priority 2005, published 2009):
Marks after values point to notes of the source that are not given here.

Key:
Assay type in all cases: in vivo, rat (Sprague-Dawley male)
[1] = tested on: rats fed high fat diet; test: Experiment 4: white adipocyte size and adipose tissue weights; conditions: Exp.4 HFD rats; after 12 weeks; AE-B 125, AE-C 100, AE-1 10, ABP 1.5 mg/kg once a day 6 weeks
Description: (§1) The rats, aged 6 week-old and weighing 170˜180 g Sprague-Dawley male, were purchased from Samtaco (Seoul, Korea). After the animals were given a standard laboratory diet for 1 week, they were divided two groups each group. Rats were fed two diets: the normal diet (ND, n=10) group and high fat diet (HFD, n=50) group. 6 weeks later, HFD group were subdivided five groups. They were administrated with extract of Aster spathulifolius aerial part orally once a day for 6 weeks.
A is ND Group, B is HFD-C group, C is HFD+AE-B group, D is HFD+AE-C group, E is HFD+AE-1 group and F is HFD+ABP group.
(§2) After 12 weeks, rats were anesthetized with ether and sacrificed after 14 h of fasting. Blood samples were collected from hepatic vein and centrifuged (3,000 rpm for 10 min at 4° C.). Serum was frozen at −70° C. for the biochemical analysis. The epididymal and abdominal fat pad were immediately weighed, measured size of adipocyte using microscope.

[2] = tested on: rats fed high fat diet; test: Experiment 4: body weight, food intake and food efficiency ratio of rats fed high fat diet; conditions: Exp.4 HFD rats; orally once a day 6 weeks; AE-B 125, AE-C 100, AE-1 10, ABP 1.5 mg/kg
Description: as §1
HFD group: High fat diet+0.5% carboxymethycelluose
HFD+AE-B group: High fat diet+AE-B 125 mg/kg
HFD+AE-C group: High fat diet+AE-C 100 mg/kg
HFD+AE-1 group: High fat diet+AE-110 mg/kg
HFD+ABP group: High fat diet+ABP 1.5 mg/kg
(§3) The experimental diets contain either a normal fat (11.7% of calories as fat, AIN-76A diet # 100000, Dyets Inc., Bethlehem, Pa., USA) or a high fat (40% of calories as fat, AIN-76A high fat diet # 100496, Dyets Inc., Bethlehem, Pa., USA) (Table 1). During the test period, food intake and body weight were measured twice a week. Food efficiency ratio was calculated by dividing the increase in body weight during the test period by the food intake during the period.

[3] = tested on: rats fed high fat diet; test: Experiment 4: hepatic lipids (TG, TC, FFA); conditions: Exp.4 HFD rats; AE-B 125, AE-C 100, AE-1 10, ABP 1.5 mg/kg once a day 6 weeks
Description: as §1
(§4) Hepatic lipid was extracted by the method devised by Folch et al. and its content was measured by the same technique used for the serum analysis. […] There was no significant difference in hepatic free fatty acid (FFA) level.

[4] = tested on: rats fed high fat diet; test: Experiment 4: serum leptin, insulin and glucose; conditions: Exp.4 HFD rats; AE-B 125, AE-C 100, AE-1 10, ABP 1.5 mg/kg once a day 6 weeks
Description: as §1, §2
(§5) Serum leptin and insulin was measured by RIA using Linco leptin assay kit (Linco research Immunoassay, St. Louis, Mo.) and insulin standards (Linco research Immunoassay, St. Louis, Mo.) respectively (FIG. 5).

[5] = tested on: rats fed high fat diet; test: Experiment 5: serum levels of leptin and insulin; conditions: Exp.5 HFD rats
Method: as §5
(§6) The rats, aged 6 week-old and weighing 170˜180 g Sprague-Dawley male, were purchased from Samtaco (Seoul, Korea). After the animals were given a standard laboratory diet for 1 week, they were divided two groups each group. Rats were fed two diets: the normal diet (ND, n=8) group and high fat diet (HFD, n=88) group. 6 weeks later, HFD group were subdivided 11 groups (n=8). They were administrated with extract of Aster spathulifolius aerial part orally once a day for 6 weeks.
Serum leptin and insulin level was measured in the same manner as in Test Example 4. Leptin is a hormone secreted from the adipocyte, in proportion to body fat mass. Leptin and insulin are deeply related with energy homeostasis. Increased leptin induces hyperinsulinemia, which in turn directly stimulates the leptin mRNA in the adipocyte.

[6] = tested on: rats fed high fat diet; test: Experiment 5: adipocyte (fat) weight; conditions: Exp.5 HFD rats
Method: as §2, §6
Adipocyte weight were determined method of experiment 5. EASA treated groups reduced white adipocyte versus the HFD group, in a dose-dependent manner.

[7] = tested on: rats fed high fat diet; test: Experiment 5: levels of lipid in liver; conditions: Exp.5 HFD rats
Method: as §4, §6

[8] = tested on: rats fed high fat diet; test: Experiment 5: levels of lipid in serum; conditions: Exp.5 HFD rats
Method: Serum triglyceride (TG), total cholesterol (TC), and HDL-cholesterol (HDL-C) levels were determined using the calorimetric method with commercial kits (Asan Diagnostics, Seoul, Korea). There was no significant difference in serum TG or HDL-C levels, although EASA-treated groups tended to be lower than the HFD-C group (FIG. 4).
as §6
In levels of TG, the HFD groups had similar values to the ND group. EASA treated groups reduced the levels of TG versus the HFD group. […] EASA treated groups reduced the levels of TC versus the HFD and ND group.

[9] = tested on: rats fed high fat diet; test: Experiment 5: food intake, change of body weights and food efficiency ratio; conditions: Exp.5 HFD rats
Method: as §3
The rats, aged 6 week-old and weighing 170˜180 g Sprague-Dawley male, were purchased from Samtaco (Seoul, Korea). After the animals were given a standard laboratory diet for 1 week, they were divided two groups each group. Rats were fed two diets: the normal diet (ND, n=8) group and high fat diet (HFD, n=88) group. 6 weeks later, HFD group were subdivided 11 groups (n=8). They were administrated with extract of Aster spathulifolius aerial part orally once a day for 6 weeks. […]
AE-1 20 group: High fat diet+AE-1 (Germacrone) 20 mg/kg
AE-1 10 group: High fat diet+AE-1(Germacrone) 10 mg/kg
AE-1 5 group: High fat diet+AE-1 (Germacrone) 5 mg/kg […]
Experimental diet is same table 1 of experiment 4. Food intake, change of body weights and food efficiency ratio were shown Table 6.

[10] = AE-1 5 mg/kg orally once a day 6 weeks
[11] = AE-1 10 mg/kg orally once a day 6 weeks
[12] = AE-1 20 mg/kg orally once a day 6 weeks

CC[C@H](/C=C/[C@@H](C)[C@H]1CC[C@H]2C3=CC[C@H]4C[C@@H](O[C@@H]5O[C@H](CO)[C@@H](O)[C@H](O)[C@H]5O)CC[C@]4(C)[C@H]3CC[C@]12C)C(C)C [ABP, α-Spinasterol 3-O-β-D-glucopyranoide]
Abdominal fat pad [1]: 14.98 ± 3.19^b g | Epididymal fat pad [1]: 11.55 ± 1.96^ab g | 12 wk B.W [2]: 509.20 ± 39.54^ab g | FER (food efficiency ratio) [2]: 0.139 ± 0.018^b | Food intake [2]: 26.00 ± 3.64 g/day | FFA (hepatic) [3]: 1.018 ± 0.25 meq/l | TC (hepatic) [3]: 17.59 ± 2.79^b mg/g liver | TG (hepatic) [3]: 2.65 ± 0.48^b mg/g liver | Insulin (serum) [4]: 1.21 ± 0.60^bc ng/ml | Leptin (serum) [4]: 3.98 ± 0.95^b ng/ml

CC(C)=C1C/C=C(\C)CC/C=C(\C)CC1=O [AE-1, Germacron]
Abdominal fat pad [1]: 14.18 ± 4.67^b g | Epididymal fat pad [1]: 10.21 ± 2.69^b g | Insulin (serum) [5, 10]: 1.35 ± 0.28^bc ng/ml | Leptin (serum) [5, 10]: 7.63 ± 1.69^b ng/ml | Insulin (serum) [5, 11]: 1.06 ± 0.40^bc ng/ml | Leptin (serum) [5, 11]: 6.55 ± 6.28^bc ng/ml | Insulin (serum) [5, 12]: 0.98 ± 0.21^b ng/ml | Leptin (serum) [5, 12]: 6.70 ± 2.58^b ng/ml | 12 wk B.W [2]: 504.40 ± 28.37^b g | FER (food efficiency ratio) [2]: 0.137 ± 0.013^b | Food intake [2]: 25.82 ± 2.91 g/day | FFA (hepatic) [3]: 0.869 ± 0.25 meq/l | TC (hepatic) [3]: 13.74 ± 0.92^c mg/g liver | TG (hepatic) [3]: 2.20 ± 0.52^b mg/g liver | Abdominal fat [6, 10]: 14.50 ± 4.43^ab g | Epididymal fat [6, 10]: 11.15 ± 2.39^ab g | Total fat [6, 10]: 31.09 ± 8.02^b g | Visceral fat [6, 10]: 5.45 ± 2.13^b g | Abdominal fat [6, 11]: 14.60 ± 2.20^ab g | Epididymal fat [6, 11]: 9.97 ± 2.85^b g | Total fat [6, 11]: 29.55 ± 5.25^b g | Visceral fat [6, 11]: 4.98 ± 1.53^b g | Abdominal fat [6, 12]: 13.76 ± 3.11^ab g | Epididymal fat [6, 12]: 11.05 ± 1.44^b g | Total fat [6, 12]: 29.49 ± 5.26^b g | Visceral fat [6, 12]: 4.68 ± 1.78^b g | FFA (liver) [7, 10]: 0.868 ± 0.28 meq/l | TC (liver) [7, 10]: 12.81 ± 1.20^bcd mg/g liver | TG (liver) [7, 10]: 1.95 ± 0.46^b mg/g liver | FFA (liver) [7, 11]: 0.831 ± 0.30 meq/l | TC (liver) [7, 11]: 12.84 ± 1.71^bcd mg/g liver | TG (liver) [7, 11]: 1.81 ± 1.32^b mg/g liver | FFA (liver) [7, 12]: 0.775 ± 0.25 meq/l | TC (liver) [7, 12]: 12.14 ± 1.76^cd mg/g liver | TG (liver) [7, 12]: 1.88 ± 0.55^b mg/g liver | HDL-cholesterol (serum) [8, 10]: 48.39 ± 9.65 mg/dL | Total cholesterol (serum) [8, 10]: 51.93 ± 10.29^c mg/dl | Triglyceride (serum) [8, 10]: 91.51 ± 20.50^ab mg/dl | HDL-cholesterol (serum) [8, 11]: 42.41 ± 8.41 mg/dL | Total cholesterol (serum) [8, 11]: 62.56 ± 8.33^c mg/dl | Triglyceride (serum) [8, 11]: 86.94 ± 21.93^ab mg/dl | HDL-cholesterol (serum) [8, 12]: 55.80 ± 19.57 mg/dL | Total cholesterol (serum) [8, 12]: 51.91 ± 14.32^c mg/dl | Triglyceride (serum) [8, 12]: 91.12 ± 24.03^ab mg/dl | 12 wk B.W [9, 10]: 501.71 ± 46.64^b g | FER (food efficiency ratio) [9, 10]: 0.196 ± 0.029^b | Food intake [9, 10]: 17.89 ± 2.97 g/day | 12 wk B.W [9, 11]: 494.75 ± 45.52^b g | FER (food efficiency ratio) [9, 11]: 0.189 ± 0.026^b | Food intake [9, 11]: 18.24 ± 2.93 g/day | 12 wk B.W [9, 12]: 490.75 ± 18.27^b g | FER (food efficiency ratio) [9, 12]: 0.194 ± 0.010^b | Food intake [9, 12]: 17.48 ± 2.83 g/day | Glucose (serum) [4]: 206.60 ± 42.07^ab mg/dl | Insulin (serum) [4]: 1.00 ± 0.27^bc ng/ml | Leptin (serum) [4]: 3.88 ± 1.01^b ng/ml

CC(C)CC(N(C)C)C1(c2ccc(Cl)cc2)CCC1 (stereo not drawn) [Sibutramine, reference compound]
Insulin (serum) ([5]; Sibutramine 7.5 mg/kg, 6 weeks): 1.02 ± 0.33^bc ng/ml | Leptin (serum) ([5]; Sibutramine 7.5 mg/kg, 6 weeks): 6.27 ± 1.89^bc ng/ml | Abdominal fat ([6]; Sibutramine 7.5 mg/kg, 6 weeks): 11.44 ± 3.16^b g | Epididymal fat ([6]; Sibutramine 7.5 mg/kg, 6 weeks): 8.75 ± 2.57^bc g | Total fat ([6]; Sibutramine 7.5 mg/kg, 6 weeks): 25.30 ± 5.77^b g | Visceral fat ([6]; Sibutramine 7.5 mg/kg, 6 weeks): 5.11 ± 0.89^b g | FFA (liver) ([7]; Sibutramine 7.5 mg/kg, 6 weeks): 0.871 ± 0.68 meq/l | TC (liver) ([7]; Sibutramine 7.5 mg/kg, 6 weeks): 13.52 ± 2.15^bc mg/g liver | TG (liver) ([7]; Sibutramine 7.5 mg/kg, 6 weeks): 1.84 ± 0.21^b mg/g liver | HDL-cholesterol (serum) ([8]; Sibutramine 7.5 mg/kg, 6 weeks): 46.62 ± 12.21 mg/dL | Total cholesterol (serum) ([8]; Sibutramine 7.5 mg/kg, 6 weeks): 59.79 ± 19.99^c mg/dl | Triglyceride (serum) ([8]; Sibutramine 7.5 mg/kg, 6 weeks): 82.62 ± 26.39^ab mg/dl | 12 wk B.W ([9]; Sibutramine 7.5 mg/kg, 6 weeks): 462.00 ± 44.93^bc g | FER (food efficiency ratio) ([9]; Sibutramine 7.5 mg/kg, 6 weeks): 0.183 ± 0.028^b | Food intake ([9]; Sibutramine 7.5 mg/kg, 6 weeks): 16.70 ± 2.68 g/day
